Measured values reported in patent publication US20260174741A1, “METHODS OF REDUCING MIRO1 OR PHOSPHORYLATED ALPHA-SYNUCLEIN” (Acurex Biosciences Corporation, priority 2022, published 2026).
Like-named read-outs stand apart in the source and are kept apart here.

Key:
[1] = system: phosphorylated serine-129 (pS129) alpha-synuclein; assay: Rat primary midbrain neuron co-culture, alpha-synuclein oligomer challenge with co-dosed/pre-treated compound: pS129 alpha-synuclein; type: cell-based; details: initial study, 40 nM, incubated with alpha-synuclein oligomer (FIG. 4C)
[2] = system: phosphorylated serine-129 (pS129) alpha-synuclein; assay: as above; type: cell-based; details: for IC50: Rattus norvegicus, Neuron, read-out: IC50 for lowering pathogenic pS129 alpha-synuclein; for number of pS129+ TH+ neurons: absence of any neuronal challenge; for levels of pathogenic pS129 alpha-synuclein: dose-response experiment, alpha-synuclein oligomer challenge (FIG. 3A, 6A); for pS129 alpha-syn-positive Lewy Body formation / pS129 alpha-syn-positive Lewy Body formation in TH-negative non-dopaminergic neurons: immunocytochemistry; for pS129 alpha-syn-positive Lewy Body formation: alpha-synuclein oligomers 500 nM, 96 hours; for pS129 alpha-syn-positive Lewy Body formation in TH-negative non-dopaminergic neurons: alpha-synuclein oligomers
Experimental: (§1) The neuronal challenge was alpha-synuclein oligomers.
(§2) After incubation with alpha-synuclein (α-syn) oligomer, cells were fixed by a solution of 4% paraformaldehyde for 20 min at room temperature, the control conditions were fixed as well following the same procedure. The cells were then permeabilized and non-specific sites were blocked with a solution of phosphate buffered saline containing (PBS) with saponin and FCS for 15 min at room temperature. Cells were incubated with a chicken Anti-Tyrosine Hydroxylase antibody (TH, Abcam, ref 76442), a mouse monoclonal Anti-α-syn P129 antibody (Abcam, ref ab184674) and a Rabbit polyclonal Anti-Miro1 antibody (Sigma, ref: HPA010687) in PBS with saponin and FCS overnight at 4° C. […] Nuclei of cells were labelled by a fluorescent marker (Hoechst solution) in the same solution.
(§3) For each well of culture, pictures were taken using InCell Analyzer™ 2200 (GE Healthcare) with 20× magnification. All the images were taken in the same conditions. The number of dopaminergic neurons (TH), the neurite length of dopaminergic neurons, the signal of phosphorylated 129 of α-syn in dopaminergic neurons and the signal of Miro1 in dopaminergic neurons were automatically evaluated with Developer system analysis (GE Healthcare). All values were expressed as mean±standard error of the mean. Statistical analyses were done on the different conditions (ANOVA followed by Dunnett's test).
(§4) In an initial study, rat primary midbrain neuron co-cultures were incubated with alpha-synuclein oligomer alone, with 400 nM Compound 1, or with positive control.
(§5) Immunocytochemistry was performed for DAPI (nuclear dye), Tyrosine Hydroxylase (TH, a marker for dopaminergic neurons), and phospho-Serine129 alpha-synuclein (pS129 α-syn, a pathogenic form of alpha-synuclein found in Lewy Body pathology) in primary rat midbrain neuron co-cultures. In naive untreated neuronal cultures, healthy TH-positive dopaminergic neurons with elaborate neurites were observed and there was very low pS129 α-synbackground signal. When these neuronal cultures were stressed with toxic exogenous alpha-synuclein oligomers (500 nM, 96 hours), there was a large and statistically significant (1) loss of TH+dopaminergic neuron viability, (2) decrease of TH+dopaminergic neuron neurite length, (3) increase in pS129 α-syn-positive Lewy Body formation, and (4) increase in Miro1 protein levels.

[3] = system: Parkinson's disease subject-derived fibroblast lines; assay: Ferroptosis assay: human fibroblast survival assay with RSL3 challenge; type: cell-based; details: DAPI-positive nuclei count, read-out: EC50 for cell survival (ferroptosis inhibition)
Experimental: Human fibroblast survival assay. All fibroblasts were obtained from the National Institute of Neurological Disorders and Stroke (NINDS) cell line repository housed at Rutgers University. Compounds were tested in at least one of the following Parkinson's disease subject-derived fibroblast lines: Line ND29802 (LRRK2 G2019S mutation carrier), Line ND40996 (SNCA A53T mutation carrier), or Line ND34263 (GBA N370S mutation carrier).
Human fibroblasts were seeded into 96-well plates on Day 0. On Day 1, fibroblasts were challenged with RSL3 (a ferroptosis activator, CAS No. 1219810-16-8) alone or in co-treatment with test compound administered in dose response. On Day 2, fibroblasts were fixed and stained by the nuclear stain 4′, 6-diamidino-2-phenylindole (DAPI), and the number of DAPI-positive nuclei were counted for each condition using the Yokogawa CQ1 imaging platform to quantify the EC50 for cell survival.

Miro1 [4] = assay: Rat primary midbrain neuron co-culture, alpha-synuclein oligomer challenge with co-dosed/pre-treated compound: Miro1 levels; type: cell-based; details: for Miro1 levels: absence of any neuronal challenge; for rescue of Miro1 elevation due to alpha-synuclein oligomer challenge: dose-response experiment (FIG. 3B, 6B); for Miro1 protein levels: immunocytochemistry, alpha-synuclein oligomers 500 nM, 96 hours; for Miro1 release: initial study
Experimental: as §1, §2, §3, §4, §5

[5] = system: tyrosine-hydroxylase positive (TH+) dopaminergic neurons; assay: Rat primary midbrain neuron co-culture, alpha-synuclein oligomer challenge with co-dosed/pre-treated compound: TH+ neuron count and neurite length; type: cell-based; details: for EC50: Rattus norvegicus, Neuron; for TH+ neurite length / TH+ neuron count: absence of any neuronal challenge; for dopamine neuron survival / dopamine neuron neurite length: dose-response experiment; for dopamine neuron survival: alpha-synuclein oligomer challenge (FIG. 2A, 5A); for dopamine neuron neurite length: alpha-synuclein oligomer challenge (FIG. 2B, 5B); for TH+ dopaminergic neuron neurite length / TH-positive dopaminergic neuron viability: immunocytochemistry, alpha-synuclein oligomers 500 nM, 96 hours
Experimental: as §1, §2, §3, §4, §5

Miro1 [6] = assay: Interventional treatment of rat dopaminergic neurons after alpha-synuclein oligomer injury: Miro1 levels in TH+ neurons; type: cell-based; details: 4 days total, doses from 123 nM to 10 μM, compared to no treatment (FIG. 9)
Experimental: Rat dopaminergic neurons were cultured as previously described (Schinelli, S. et al. Journal of Neurochemistry 1988, 50(6), pages 1900-1907). After 7 days of culture, cells were challenged with alpha-synuclein oligomer (500 nM) for 48 hours. Subsequent to the challenge, cells were subjected to alpha-synuclein (α-syn) oligomer (500 nM)+various concentrations of Compound 1 (0, 14, 41, 123, 370, 1100, 3300, and 10000 nM) for an additional 48 hours. By condition, N=6 wells were performed and one plate of 96 wells were performed.
(§6) After 4 days of incubation with α-syn oligomer, cells were fixed by a solution of 4% paraformaldehyde for 20 min at room temperature, the control conditions were fixed as well following the same procedure. The cells were then permeabilized and non-specific sites were blocked with a solution of phosphate buffered saline containing (PBS) with saponin and FCS for 15 min at room temperature. […]
as §3, with “All the images were taken in the same conditions.” left out, “Statistical analyses were done on the different conditions (ANOVA followed by Dunnett's test).” left out

[7] = system: phosphorylated Ser129 alpha-synuclein; assay: Interventional treatment of rat dopaminergic neurons after alpha-synuclein oligomer injury: phosphorylated Ser129-positive TH+ neurons; type: cell-based; details: interventional: 2 days alpha-syn oligomer 500 nM, then 2 more days with compound
Experimental: (§7) Rat dopaminergic neurons were cultured as previously described (Schinelli, S. et al. Journal of Neurochemistry 1988, 50(6), pages 1900-1907). After 7 days of culture, cells were challenged with alpha-synuclein oligomer (500 nM) for 48 hours. […] By condition, N=6 wells were performed and one plate of 96 wells were performed.
as §6
as §3, with “All the images were taken in the same conditions.” left out, “Statistical analyses were done on the different conditions (ANOVA followed by Dunnett's test).” left out

[8] = system: TH+ neurite length of rat dopaminergic neurons; assay: Interventional treatment of rat dopaminergic neurons after alpha-synuclein oligomer injury: TH+ neurite length; type: cell-based; details: interventional: 2 days alpha-syn oligomer, then 2 more days with compound
Experimental: as §7, §6
as §3, with “All the images were taken in the same conditions.” left out, “Statistical analyses were done on the different conditions (ANOVA followed by Dunnett's test).” left out

[9] = system: tyrosine-hydroxylase positive (TH+) dopaminergic neurons; assay: Rat primary midbrain neuron co-culture, alpha-synuclein oligomer challenge with co-dosed/pre-treated compound: TH+ neuron count and neurite length; type: cell-based; details: initial study, 40 nM, incubated with alpha-synuclein oligomer (FIG. 4A)
ferroptosis = details: described in Example 2 of PCT/US23/73312 as Compound 4; read-out: ferroptosis inhibitor EC50; cited from earlier work

## CCN1CCN(c2ccc3nc4ccc(=O)cc-4sc3c2)CC1 [Compound 5, 7-(4-ethylpiperazin-1-yl)-3H-phenothiazin-3-one]
[1]
  pathogenic phosphorylated serine-129 (pS129) alpha-synuclein levels: reduction of pathogenic phosphorylated serine-129 (pS129) alpha-synuclein levels
[2]
  IC50: < 0.4 nM
  number of pS129+ TH+ neurons: did not affect
  levels of pathogenic pS129 alpha-synuclein: lowered levels of pathogenic pS129 α-synin a dose-dependent fashion
[2]; pre-treated 40 nM
  pS129 alpha-syn-positive Lewy Body formation: decrease/prevention in pS129 α-syn-positive Lewy Body formation
[2]; pre-treatment 3.7 nM
  pS129 alpha-syn-positive Lewy Body formation in TH-negative non-dopaminergic neurons: robust decrease/prevention
[3]
  EC50: 3.6 nM
Miro1 [4]
  Miro1 levels: did not affect
  rescue of Miro1 elevation due to alpha-synuclein oligomer challenge: did not reach statistical significance
Miro1 [4]; pre-treated 40 nM
  Miro1 protein levels: decrease in Miro1 protein levels
Miro1 [4]; 40 nM, incubated with alpha-synuclein oligomer (FIG. 4B)
  Miro1 release: statistically significant rescue of Miro1 release
[5]; read-out: EC50 for rescue of TH-positive neurite length
  EC50: < 0.4 nM
[5]; read-out: EC50 for rescue of TH-positive neuron viability
  EC50: ~7 nM
[5]
  TH+ neurite length: did not affect
  TH+ neuron count: did not affect
  dopamine neuron survival: rescued dopamine neuron survival in a dose-dependent fashion
  dopamine neuron neurite length: rescued dopamine neuron neurite length in a dose-dependent fashion
[5]; pre-treated 40 nM
  TH+ dopaminergic neuron neurite length: rescue of TH+dopaminergic neuron neurite length
  TH-positive dopaminergic neuron viability: rescue of TH-positive dopaminergic neuron viability

## C[C@@H](NC(=O)Cc1ccc(C(F)(F)F)cc1)c1cc2cnn(CC(F)(F)F)c2cn1 [Compound 1, (R)—N-(1-(1-(2,2,2-trifluoroethyl)-1H-pyrazolo[3,4-c]pyridin-5-yl)ethyl)-2-(4-(trifluoromethyl)phenyl)acetamide]
Miro1 [6]
  Miro1 levels in TH+ neurons: statistically significantly reduced
[2]; alpha-synuclein oligomer challenge
  IC50: < 125 nM
[2]
  number of pS129+ TH+ neurons: did not affect
  levels of pathogenic pS129 alpha-synuclein: lowered levels of pathogenic pS129 α-synin a dose-dependent fashion
[2]; pre-treated 400 nM
  pS129 alpha-syn-positive Lewy Body formation: decrease/prevention in pS129 α-syn-positive Lewy Body formation
[2]; pre-treatment 1.1 uM
  pS129 alpha-syn-positive Lewy Body formation in TH-negative non-dopaminergic neurons: robust decrease/prevention
[2]; initial study, 400 nM, incubated with alpha-synuclein oligomer (FIG. 1C)
  pathogenic phosphorylated serine-129 (pS129) alpha-synuclein levels: reduction of pathogenic phosphorylated serine-129 (pS129) alpha-synuclein levels
[7]; doses from 370 nM to 10 μM, compared to no treatment (FIG. 7B)
  levels of phosphorylated Ser129-positive TH+ neurons: significantly reduced
[8]; doses of 370 nM, 3.3 µM, or 10 µM, compared to no treatment (FIG. 8B)
  TH+ neurite length: significantly restored
Miro1 [4]
  Miro1 levels: did not affect
  rescue of Miro1 elevation due to alpha-synuclein oligomer challenge: did not reach statistical significance
Miro1 [4]; pre-treated 400 nM
  Miro1 protein levels: decrease in Miro1 protein levels
Miro1 [4]; 400 nM, incubated with alpha-synuclein oligomer (FIG. 1B)
  Miro1 release: statistically significant rescue of Miro1 release
[5]; alpha-synuclein oligomer challenge, read-out: EC50 for rescue of TH-positive neurite length
  EC50: < 150 nM
[5]; alpha-synuclein oligomer challenge, read-out: EC50 for rescue of TH-positive neuron viability
  EC50: ~250 nM
[5]
  TH+ neurite length: did not affect
  TH+ neuron count: did not affect
  dopamine neuron survival: rescued dopamine neuron survival in a dose-dependent fashion
  dopamine neuron neurite length: rescued dopamine neuron neurite length in a dose-dependent fashion
[5]; pre-treated 400 nM
  TH+ dopaminergic neuron neurite length: rescue of TH+dopaminergic neuron neurite length
  TH-positive dopaminergic neuron viability: rescue of TH-positive dopaminergic neuron viability
[5]; initial study, 400 nM, incubated with alpha-synuclein oligomer (FIG. 1A)
  TH+ neuronal loss induced by alpha-synuclein oligomer: prevented TH+ neuronal loss
[9]
  TH+ neuronal loss induced by alpha-synuclein oligomer: prevented TH+ neuronal loss

## CC(C)N1[C@@H]2CC[C@H]1CN(c1ccc3nc4ccc(=O)cc-4sc3c1)C2 [Compound 9]
ferroptosis
  EC50: 2.9 nM
[7]; doses of 11 nM, 33 nM, or 100 nM, compared to no treatment (FIG. 10B)
  levels of phosphorylated Ser129-positive TH+ neurons: significantly reduced
[8]; doses of 11 nM, 33 nM, or 100 nM, compared to no treatment (FIG. 11B)
  TH+ neurite length: significantly restored
